# Read-outs that look alike come from different tables or passages of the source.
# Experiments:
# [1] = tested on: isolated rat liver mitochondria; assay: Oxygen consumption, Clark-type oxygen electrode; assay type: biochemical; details: for I-ADP, % of control (O2 consumption rate): glutamate/malate driven state 3 respiration; for I-ADP, % of control (O2 consumption rate) / I-sub, % of control (O2 consumption rate) / II-ADP, % of control (O2 consumption rate) / II-sub, % of control (O2 consumption rate): isolated rat liver mitochondria; for I-sub, % of control (O2 consumption rate): glutamate/malate driven state 4 respiration; for II-ADP, % of control (O2 consumption rate): succinate-driven state 3 respiration; for II-sub, % of control (O2 consumption rate): succinate-driven state 4 respiration
# [2] = biological target: T1, mitochondrial respiratory chain complex II (Rattus norvegicus, UniProt P21913+Q641Z9+Q6PCT8+Q920L2); assay: Respiratory chain complex II activity; assay type: biochemical; details: tested up to 100μM
# T1 construct: Submitochondrial particles were prepared by subjecting the intact rat mitochondria, isolated as described above, to three successive freeze–thaw cycles; from tissue; host or cells: rat liver mitochondria (submitochondrial particles)
# T1 sequence (Q920L2 35-656): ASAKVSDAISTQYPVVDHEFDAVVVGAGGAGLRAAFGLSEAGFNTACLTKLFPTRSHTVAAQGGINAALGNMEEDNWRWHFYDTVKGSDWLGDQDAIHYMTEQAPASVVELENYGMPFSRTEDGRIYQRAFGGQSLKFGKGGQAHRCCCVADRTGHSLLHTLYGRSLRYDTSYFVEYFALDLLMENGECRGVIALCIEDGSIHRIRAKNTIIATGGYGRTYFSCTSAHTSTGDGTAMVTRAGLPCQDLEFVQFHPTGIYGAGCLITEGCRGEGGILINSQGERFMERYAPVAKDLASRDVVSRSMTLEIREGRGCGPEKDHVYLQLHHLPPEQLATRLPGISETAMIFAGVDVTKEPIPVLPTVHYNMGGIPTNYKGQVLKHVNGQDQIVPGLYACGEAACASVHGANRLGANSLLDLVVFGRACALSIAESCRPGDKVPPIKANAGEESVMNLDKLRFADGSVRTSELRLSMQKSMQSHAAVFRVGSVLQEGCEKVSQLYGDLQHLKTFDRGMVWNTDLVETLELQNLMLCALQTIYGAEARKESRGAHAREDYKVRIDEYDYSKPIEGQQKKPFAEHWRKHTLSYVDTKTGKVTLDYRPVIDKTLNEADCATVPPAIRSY
# T1 sequence (P21913 31-282): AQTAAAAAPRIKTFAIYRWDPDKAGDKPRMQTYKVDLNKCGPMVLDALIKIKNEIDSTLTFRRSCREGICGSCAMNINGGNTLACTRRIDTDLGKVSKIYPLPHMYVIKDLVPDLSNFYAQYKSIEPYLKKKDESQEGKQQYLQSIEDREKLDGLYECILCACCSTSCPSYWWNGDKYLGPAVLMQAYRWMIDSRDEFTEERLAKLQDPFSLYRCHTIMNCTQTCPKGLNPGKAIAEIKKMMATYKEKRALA
# T1 sequence (Q641Z9 1-169): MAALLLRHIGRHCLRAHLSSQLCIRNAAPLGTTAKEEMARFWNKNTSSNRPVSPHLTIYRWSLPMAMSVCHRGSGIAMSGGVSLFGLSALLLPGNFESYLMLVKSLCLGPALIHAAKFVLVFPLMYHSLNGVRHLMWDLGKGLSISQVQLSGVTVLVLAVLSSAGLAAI
# T1 sequence (Q6PCT8 57-159): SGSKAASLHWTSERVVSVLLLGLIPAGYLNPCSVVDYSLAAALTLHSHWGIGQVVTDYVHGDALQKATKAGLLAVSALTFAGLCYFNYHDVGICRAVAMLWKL
# [3] = tested on: HepG2 cells; assay: ROS-Glo hydrogen peroxide (ROS) assay; assay type: cell-based, human; details: 2 h treatment; mean±SD of three experiments
# [4] = tested on: Caenorhabditis elegans (Bristol N2); assay: C. elegans larval development and growth assay
# [5] = tested on: mitochondrial respiratory chain complex V; assay type: biochemical, rat
# [6] = tested on: rat primary hepatocytes; assay: MMP assay in rat primary hepatocytes
# [7] = tested on: hNSC; assay: MMP assay in human neural stem cells (hNSC); assay type: cell-based; details: mean±SD of three experiments
# [8] = tested on: mitochondrial respiratory chain complex IV; assay type: biochemical, rat
# [9] = tested on: p53 (p53-bla HCT-116 cells); assay: p53 β-lactamase reporter gene assay; assay type: cell-based, human; details: 16 h incubation; mean±SD of three experiments
# [10] = tested on: HepG2 cells; assay: Intracellular ATP content (cell viability) assay; assay type: cell-based, human; details: for IC50: 40 h treatment, mean±SD of three experiments
# [11] = tested on: mitochondrial respiratory chain complex I; assay type: biochemical, rat
# [12] = tested on: HepG2 cells; details: cited from earlier work
# [13] = tested on: Caenorhabditis elegans strain PE255; assay: In vivo C. elegans ATP status assay
# [14] = tested on: HeLa cells expressing YFP-Parkin; assay: Parkin translocation assay; assay type: cell-based, human
# [15] = tested on: HepG2 cells
# [16] = tested on: Nrf2/ARE (ARE-bla HepG2 cells); assay: ARE β-lactamase reporter gene assay; assay type: cell-based, human
# [17] = tested on: HepG2 cells; assay: Oxygen consumption, Seahorse XF24 analyzer; assay type: cell-based, human
# [18] = tested on: mitochondrial respiratory chain complex III; assay type: biochemical, rat
structure (smiles),measurement,setting,value
CCN1C(=CC=Cc2ccc3ccccc3[n+]2CC)C=Cc2ccccc21.[Cl-] [Pinacyanol chloride],"I-ADP, % of control (O2 consumption rate)",[1]; 0.8 µM,88 (40.4) % of control
same,"I-sub, % of control (O2 consumption rate)",[1]; 0.8 µM,113 (12.6) % of control
same,"II-ADP, % of control (O2 consumption rate)",[1]; 0.8 µM,81 (60.9) % of control
same,"II-sub, % of control (O2 consumption rate)",[1]; 0.8 µM,103 (21.3) % of control
same,"I-ADP, % of control (O2 consumption rate)",[1]; 4 µM,57 (26.1) % of control
same,"I-sub, % of control (O2 consumption rate)",[1]; 4 µM,108 (12.1) % of control
same,"II-ADP, % of control (O2 consumption rate)",[1]; 4 µM,56 (42.3) % of control
same,"II-sub, % of control (O2 consumption rate)",[1]; 4 µM,79 (16.2) % of control
same,"I-ADP, % of control (O2 consumption rate)",[1]; 20 µM,31 (14.2) % of control
same,"I-sub, % of control (O2 consumption rate)",[1]; 20 µM,69 (7.7) % of control
same,"II-ADP, % of control (O2 consumption rate)",[1]; 20 µM,35 (26.2) % of control
same,"II-sub, % of control (O2 consumption rate)",[1]; 20 µM,69 (14.3) % of control
same,"I-ADP, % of control (O2 consumption rate)",[1]; 100 µM,21 (9.7) % of control
same,"I-sub, % of control (O2 consumption rate)",[1]; 100 µM,76 (11.8) % of control
same,"II-ADP, % of control (O2 consumption rate)",[1]; 100 µM,11 (7.6) % of control
same,"II-sub, % of control (O2 consumption rate)",[1]; 100 µM,27 (8.5) % of control
same,effect on mitochondrial respiration (in words),"[1]; Clark-type oxygen electrode, concentrations up to 100μM",slightly milder inhibitory effects on both glutamate/malate-driven respiration and succinate-driven respiration
same,Potential Mechanism,"[1]; mitochondrial respiration in isolated rat liver mitochondria, Clark type oxygen electrode, over tested concentrations",Inhibitor
same,Complex II % inhibition (activity call),[2],Inactive
same,ROS (HepG2) EC50,[3],Inactive
same,EXT: mean difference in nematode size relative to plate controls,[4]; 0.005 µM,0.5663
same,EXT: mean difference in nematode size relative to plate controls,[4]; 0.01 µM,0.679
same,EXT: mean difference in nematode size relative to plate controls,[4]; 0.05 µM,1.058
same,EXT: mean difference in nematode size relative to plate controls,[4]; 0.1 µM,0.8774
same,EXT: mean difference in nematode size relative to plate controls,[4]; 0.5 µM,1.355
same,larval growth effect at 0.5μM,"[4]; 0.5μM, 48 h exposure",severe larval growth arrest
same,EXT: mean difference in nematode size relative to plate controls,[4]; 1 µM,1.41
same,EXT: mean difference in nematode size relative to plate controls,[4]; 5 µM,1.888
same,EXT: mean difference in nematode size relative to plate controls,[4]; 10 µM,1.689
same,EXT: mean difference in nematode size relative to plate controls,[4]; 50 µM,0.7889
same,effect on larval growth (in words),"[4]; 0.5–100μM, 48 h exposure",inhibited
same,"LEC EXT: lowest effect concentration for extinction, a measure of nematode size","[4]; C. elegans larval growth, JT trend test, Bonferoni correction p<0.05",0.005 µM
same,inhibitory effect at (concentration) on larval growth in the C. elegans assay,[4]; quoted in Discussion,0.005 µM
same,Complex V % inhibition (activity call),[5],Inactive
same,Rat hepatocytes (efficacy) (MMP),"[6]; % of positive control, mean±SD of three experiments",−75.4±6.24%
same,MMP assays efficacy (%) Rat Hepatocytes,"[6]; rat hepatocytes, mean ± SD of three experiments",-99±26%
same,IC50,"[6]; read-out: IC50 in rat primary hepatocytes (MMP, tier-one retest), existing Tox21 10K library stock solutions, 1-h treatment, Excel Table S1",40 nM
same,IC50,"[6]; read-out: Rat hepatocytes IC50 (MMP), 1 h treatment, fresh re-sourced stocks, mean±SD of three experiments",310 ± 150 nM
same,IC50,"[7]; 1 h treatment, fresh re-sourced stocks, read-out: hNSC IC50 (MMP)",40 ± 10 nM
same,hNSC (efficacy) (MMP),[7]; % of positive control,−97.1±7.31%
same,Complex IV % inhibition (activity call),[8],Inactive
same,p53 (HCT-116) EC50,[9],Inactive
same,IC50,"[10]; 5 mM glucose, read-out: ATP (HepG2, glucose) IC50",10700 ± 6390 nM
same,"ATP (HepG2, glucose) (efficacy)","[10]; 5 mM glucose, % of positive control",−107±6.73%
same,IC50,"[10]; 10 mM galactose, read-out: ATP (HepG2, galactose) IC50",5880 ± 2330 nM
same,"ATP (HepG2, galactose) (efficacy)","[10]; 10 mM galactose, % of positive control",−105±4.87%
same,inhibition effect on Complex I,[11]; at 4.0μM,23.6%
same,Complex I % inhibition,[11]; at 20μM,38.3±1.92 at 20μM %
same,MMP assays efficacy (%) qHTS-HepG2,[12],-91±3%
same,IC50,"[12]; read-out: MMP assays IC50 (µM), qHTS-HepG2",0.01 µM
same,LUM: mean difference in luminescence (ATP content) relative to plate controls,[13]; 0.005 µM,0.1466
same,LUM: mean difference in luminescence (ATP content) relative to plate controls,[13]; 0.01 µM,0.1001
same,LUM: mean difference in luminescence (ATP content) relative to plate controls,[13]; 0.05 µM,0.1404
same,LUM: mean difference in luminescence (ATP content) relative to plate controls,[13]; 0.1 µM,0.3228
same,LUM: mean difference in luminescence (ATP content) relative to plate controls,[13]; 0.5 µM,1.055
same,LUM: mean difference in luminescence (ATP content) relative to plate controls,[13]; 1 µM,-0.08665
same,LUM: mean difference in luminescence (ATP content) relative to plate controls,[13]; 5 µM,3.898
same,LUM: mean difference in luminescence (ATP content) relative to plate controls,[13]; 10 µM,3.595
same,LUM: mean difference in luminescence (ATP content) relative to plate controls,[13]; 25 µM,3.9673
same,LUM: mean difference in luminescence (ATP content) relative to plate controls,[13]; 50 µM,3.294
same,LUM: mean difference in luminescence (ATP content) relative to plate controls,[13]; 75 µM,3.822
same,LUM: mean difference in luminescence (ATP content) relative to plate controls,[13]; 100 µM,4.216
same,effect on ATP content (in words),"[13]; 0.5–100μM, 24 h exposure",inhibited
same,"LEC LUM: lowest effect concentration for luminescence, a measure of nematode ATP content","[13]; C. elegans ATP, JT trend test, Bonferoni correction p<0.05",0.25 µM
same,Parkin translocation into mitochondria (in words),[14]; 3 h,patterns similar to antimycin A and FCCP
same,Parkin recruitment,"[14]; HeLa cells stably expressing YFP-Parkin, treated for 2 h",Active
same,HepG2 (efficacy) Glucose (MMP),"[15]; 5 mM glucose, % of positive control, mean±SD of three experiments",−85.9±3.17%
same,HepG2 (efficacy) Galactose (MMP),"[15]; 10 mM galactose, % of positive control, mean±SD of three experiments",−78.9±0.48%
same,MMP assays efficacy (%) HepG2,"[15]; HepG2 cells, single number from one experiment",-89%
same,IC50,"[15]; read-out: HepG2 IC50 Galactose (MMP), 10 mM galactose, no glucose, 1 h treatment, mean±SD of three experiments",0.06 ± 0.02 µM
same,IC50,"[15]; read-out: HepG2 IC50 Glucose (MMP), 5 mM glucose, 1 h treatment, fresh re-sourced stocks, mean±SD of three experiments",0.04 ± 0.01 µM
same,IC50,"[15]; read-out: IC50 in HepG2 cells (MMP, tier-one retest), existing Tox21 10K library stock solutions, Excel Table S1",0.02 µM
same,IC50,"[15]; read-out: MMP assays IC50 (µM) HepG2, HepG2 cells, single number from one experiment",0.0155 µM
same,EC50,"[16]; 16 h incubation, mean±SD of three experiments, read-out: ARE (HepG2) EC50",1390 ± 950 nM
same,ARE (HepG2) (efficacy),[16]; % of positive control,62.8±13.4%
same,"effect on oxygen consumption rate, Seahorse (in words)",[17],inhibitory patterns similar to that of rotenone
same,Activity in oxygen consumption,"[17]; Seahorse XF24, HepG2 cells, 25 mM glucose, 1, 4, 16, and 64μM",Inhibitor
same,Complex III % inhibition (activity call),[18],Inactive
